The target of this test is T1, mouse c-fms (Mus musculus, UniProt P09581).
T1 construct: Macrophage-like cell line BAC-1.2F5 which expresses c-fms as a M-CSF receptor on cell membranes; endogenous in cells; host or cells: BAC-1.2F5 mouse macrophage-like cell line
T1 sequence (P09581 20-977): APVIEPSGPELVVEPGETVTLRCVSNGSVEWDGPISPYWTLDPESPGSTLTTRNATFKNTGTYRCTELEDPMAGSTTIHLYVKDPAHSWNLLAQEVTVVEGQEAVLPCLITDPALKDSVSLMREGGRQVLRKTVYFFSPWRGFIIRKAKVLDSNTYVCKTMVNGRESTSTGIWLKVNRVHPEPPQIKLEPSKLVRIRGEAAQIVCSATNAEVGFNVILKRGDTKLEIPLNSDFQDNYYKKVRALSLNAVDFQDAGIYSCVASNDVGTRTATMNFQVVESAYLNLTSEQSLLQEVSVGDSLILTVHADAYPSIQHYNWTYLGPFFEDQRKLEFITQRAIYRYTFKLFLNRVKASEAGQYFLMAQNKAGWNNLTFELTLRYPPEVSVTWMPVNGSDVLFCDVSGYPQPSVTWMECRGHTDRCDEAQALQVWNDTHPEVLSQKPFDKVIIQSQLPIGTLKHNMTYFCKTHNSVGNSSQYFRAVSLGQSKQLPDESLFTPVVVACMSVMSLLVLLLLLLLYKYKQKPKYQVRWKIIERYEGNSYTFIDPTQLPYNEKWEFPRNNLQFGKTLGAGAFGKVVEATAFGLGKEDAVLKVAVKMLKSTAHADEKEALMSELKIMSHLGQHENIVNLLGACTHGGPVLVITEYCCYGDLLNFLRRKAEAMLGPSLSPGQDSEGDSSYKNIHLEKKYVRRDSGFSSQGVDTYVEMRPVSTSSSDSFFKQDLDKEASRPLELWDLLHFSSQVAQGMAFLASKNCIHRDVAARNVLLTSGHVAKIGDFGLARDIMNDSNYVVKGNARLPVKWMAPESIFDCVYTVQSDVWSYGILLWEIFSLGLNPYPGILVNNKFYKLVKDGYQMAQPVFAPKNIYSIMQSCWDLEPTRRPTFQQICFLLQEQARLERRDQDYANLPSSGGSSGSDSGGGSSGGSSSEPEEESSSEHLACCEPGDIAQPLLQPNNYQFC
Kind of test: Inhibition of c-fms autophosphorylation in macrophage-like cell line BAC-1.2F5 by M-CSF stimulation (ELISA). The format is cell-based. The conditions noted are these: BAC-1.2F5 cells, human recombinant M-CSF 50 ng/ml, read-out: c-fms autophosphorylation 50% inhibitory concentration (IC50). The gist of the method: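 BAC-1.2F5 cells serum-starved (0.1% FCS) 12 h, preincubated with compound 1 h at 37° C, then stimulated 6 min with 50 ng/ml human recombinant M-CSF. Lysates captured on anti-phosphotyrosine plates, detected with anti-c-fms antiserum and peroxidase read-out at 450 nm. IC50 from inhibition normalised between ±M-CSF controls.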

Regarding `COc1cc2nccc(Oc3ccc(NC(=O)N[C@@H](C)c4ccc(F)cc4)cc3)c2cc1OC` [Example 2, N-{4-[(6,7-Dimethoxy-4-quinolyl)oxy]phenyl}-N′-[(1S)-1-(4-fluorophenyl)ethyl]urea], the IC50 is 2.2 nM.
As for `COc1cc2nccc(Oc3ccc(NC(=O)N[C@H](C)c4ccc(F)cc4)cc3)c2cc1OC` [Example 3, N-{4-[(6,7-Dimethoxy-4-quinolyl)oxy]phenyl}-N′-[(1R)-1-(4-fluorophenyl)ethyl]urea], the figure is 2.4 nM; as for `COc1cc2nccc(Oc3ccc(NC(=O)N[C@@H](C)c4ccc([N+](=O)[O-])cc4)cc3)c2cc1OC` [Example 35, N-{4-[(6,7-Dimethoxy-4-quinolyl)oxy]phenyl}-N′-[(1S)-1-(4-nitrophenyl)ethyl]urea], 12.1 nM.
Regarding `COc1cc2nccc(Oc3ccc(NC(=O)N[C@H](C)c4ccc([N+](=O)[O-])cc4)cc3)c2cc1OC` [Example 36, N-{4-[(6,7-Dimethoxy-4-quinolyl)oxy]phenyl}-N′-[(1R)-1-(4-nitrophenyl)ethyl]urea], the IC50 was 31.1 nM.
In the case of `COc1cc2nccc(Oc3ccc(NC(=O)N[C@@H](C)c4ccc(C)cc4)cc3)c2cc1OC` [Example 41, N-{4-[(6,7-Dimethoxy-4-quinolyl)oxy]phenyl}-N′-[(1S)-1-(4-methylphenyl)ethyl]urea], the IC50 was 2.8 nM.
With `COc1cc2nccc(Oc3ccc(NC(=O)N[C@H](C)c4ccc(C)cc4)cc3)c2cc1OC` [Example 42, N-{4-[(6,7-Dimethoxy-4-quinolyl)oxy]phenyl}-N′-[(1R)-1-(4-methylphenyl)ethyl]urea], the IC50 amounted to 38.5 nM.
As for `COc1cc2nccc(Oc3ccc(NC(=O)N[C@H](C)c4cccc(Br)c4)cc3)c2cc1OC` [Example 45, N-[(1R)-1-(3-Bromophenyl)ethyl]-N′-{4-[(6,7-dimethoxy-4-quinolyl)oxy]phenyl}urea], the IC50 is 22.2 nM.
Consider `COc1cc2nccc(Oc3ccc(NC(=O)N[C@@H](C)c4cccc(Br)c4)cc3)c2cc1OC` [Example 46, N-[(1S)-1-(3-Bromophenyl)ethyl]-N′-{4-[(6,7-dimethoxy-4-quinolyl)oxy]phenyl}urea], for which the IC50 came out at 7.3 nM.
As to `COc1cc2nccc(Oc3ccc(NC(=O)N[C@@H](C)c4ccc(Cl)cc4)cc3)c2cc1OC` [Example 47, N-[(1S)-1-(4-Chlorophenyl)ethyl]-N′-{4-[(6,7-dimethoxy-4-quinolyl)oxy]phenyl}urea], the IC50 amounted to 3.8 nM.
`COc1cc2nccc(Oc3ccc(NC(=O)N[C@H](C)c4ccc(Cl)cc4)cc3)c2cc1OC` [Example 48, N-[(1R)-1-(4-Chlorophenyl)ethyl]-N′-{4-[(6,7-dimethoxy-4-quinolyl)oxy]phenyl}urea]: the IC50 was determined as 40 nM.
As for `COc1cccc([C@H](C)NC(=O)Nc2ccc(Oc3ccnc4cc(OC)c(OC)cc34)cc2)c1` [Example 49, N-{4-[(6,7-Dimethoxy-4-quinolyl)oxy]phenyl}-N′-[(1S)-1-(3-methoxyphenyl)ethyl]urea], the figure is 3.2 nM; as for `COc1cccc([C@@H](C)NC(=O)Nc2ccc(Oc3ccnc4cc(OC)c(OC)cc34)cc2)c1` [Example 50, N-{4-[(6,7-Dimethoxy-4-quinolyl)oxy]phenyl}-N′-[(1R)-1-(3-methoxyphenyl)ethyl]urea], 7.2 nM.

For the origin of these results see US7598258B2, “Quinoline derivatives and quinazoline derivatives inhibiting autophosphorylation of macrophage colony stimulating factor receptor” (Kirin Beer Kabushiki Kaisha, priority 2002, dated 2009).
